According to US9078902B2, “Triazine derivatives and their therapeutical applications” (NantBioScience, Inc., priority 2010, dated 2015):

molecular target: T1, Aurora-A kinase (Homo sapiens, UniProt O14965); experiment: Aurora-A kinase assay (KinaseProfiler / Kinase Hotspot); type: biochemical; settings: read-out: % Inhibition Auroro-A
T1 construct: purchased Millipore (KinaseProfiler Service); also Reaction Biology Corp. (Kinase HotSpot)
T1 sequence (O14965 1-403): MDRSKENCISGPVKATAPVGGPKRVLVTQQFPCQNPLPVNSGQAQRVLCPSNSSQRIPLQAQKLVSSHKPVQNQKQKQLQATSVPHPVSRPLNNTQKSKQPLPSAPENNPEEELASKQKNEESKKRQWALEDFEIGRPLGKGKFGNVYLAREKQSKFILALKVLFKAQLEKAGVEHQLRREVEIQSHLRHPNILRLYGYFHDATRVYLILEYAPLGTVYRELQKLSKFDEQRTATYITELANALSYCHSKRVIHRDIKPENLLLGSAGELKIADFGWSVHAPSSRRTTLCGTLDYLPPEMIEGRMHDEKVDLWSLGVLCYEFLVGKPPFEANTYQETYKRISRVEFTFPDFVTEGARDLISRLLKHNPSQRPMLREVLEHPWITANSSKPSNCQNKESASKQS
Method: (§1) This example illustrated c-Src kinase, Aurora-A kinase, Flt3 kinase, Ret kinase and TrkA Kinase Assays of selected Compounds from this invention (referred to Daniele Fancelli et al, J. Med. Chem., 2006, 49 (24), pp 7247-7251). The KinaseProfiler™ Service Assay Protocols (Millipore) were used to test the kinase inhibiting activity of novel compounds from this invention. To do this, the buffer composition was as: 20 mM MOPS, 1 mM EDTA, 0.01% Brij-35, 5% Glycerol, 0.1% p-mercaptoethanol, 1 mg/mL BSA. Test compounds were initially dissolved in DMSO at the desired concentration, then serially diluted to the kinase assay buffer. In a final reaction volume of […], Aurora-A(h) (5-10 mU) is incubated with 8 mM MOPS pH 7.0, 0.2 mM EDTA, […] LRRASLG (Kemptide), 10 mM MgAcetate and [y33P-ATP]. The reaction was initiated by the addition of the MgATP mix. After incubation for 40 minute at room temperature, the reaction was stopped by addition of […] of a 3% phosphoric acid solution. […] of the reaction was then spotted onto a P30 filtermat and washed three times for 5 minutes in 50 mM phosphoric acid and once in methanol prior to drying and scintillation counting. Wells containing substrate but no kinase and wells containing a phosphopeptide control were used to set 0% and 100% phosphorylation value, repectively.
(§2) Also Kinase Hotspot SM kinase assay was used to test the compounds for IC50 or % inhibitions (Reaction Biology Corp.). Inhibitor IC50 values were determined by titration of compound at the optimal kinase concentration (Kinase EC50).

SMILES | inhibition at 1 µM [%]
CN1CCN(c2nc(Nc3cc(-c4ccco4)[nH]n3)nc(Sc3ccc(NC(=O)C4CC4)cc3)n2)CC1 [Example 5] | 50 to 90
CN1CCN(c2nc(Nc3cc(-c4cccs4)[nH]n3)nc(Sc3ccc(NC(=O)C4CC4)cc3)n2)CC1 [Example 6] | 50 to 90
CCc1nc(Nc2cc(-c3ccco3)[nH]n2)nc(Sc2ccc(NC(=O)C3CC3)cc2)n1 [Example 8] | < 50
CN1CCN(c2nc(Nc3cc(-c4ccco4)[nH]n3)nc(Sc3ccccc3)n2)CC1 [Example 9] | 50 to 90
CN1CCN(c2nc(Nc3cc(-c4ccco4)[nH]n3)nc(Sc3ccc(N)cc3)n2)CC1 [Example 10] | 50 to 90
CN1CCN(c2nc(Nc3ncc(-c4ccccc4)s3)nc(Sc3ccccc3)n2)CC1 [Example 14] | < 50
CN1CCN(c2nc(Nc3cc(-c4ccco4)[nH]n3)nc(Sc3ccc(O)cc3)n2)CC1 [Example 15] | 50 to 90
CN1CCN(c2nc(Nc3cc(-c4ccco4)[nH]n3)nc(Sc3ccc(Cl)cc3)n2)CC1 [Example 16] | 50 to 90
CN1CCN(c2nc(Nc3cc(-c4ccco4)[nH]n3)nc(Sc3cccc(Cl)c3)n2)CC1 [Example 17] | 50 to 90
CN1CCN(c2nc(Nc3cc(-c4ccco4)[nH]n3)nc(Sc3ccccc3Cl)n2)CC1 [Example 18] | 50 to 90
CN1CCN(c2nc(Nc3cc(-c4ccco4)[nH]n3)nc(Sc3ccc(C(F)(F)F)cc3)n2)CC1 [Example 19] | 50 to 90

molecular target: T2, Ret kinase (Homo sapiens, UniProt P07949); experiment: Ret kinase assay (KinaseProfiler / Kinase Hotspot); type: biochemical; settings: not given
T2 construct: purchased Millipore (KinaseProfiler Service); also Reaction Biology Corp. (Kinase HotSpot)
T2 sequence (P07949 29-1114): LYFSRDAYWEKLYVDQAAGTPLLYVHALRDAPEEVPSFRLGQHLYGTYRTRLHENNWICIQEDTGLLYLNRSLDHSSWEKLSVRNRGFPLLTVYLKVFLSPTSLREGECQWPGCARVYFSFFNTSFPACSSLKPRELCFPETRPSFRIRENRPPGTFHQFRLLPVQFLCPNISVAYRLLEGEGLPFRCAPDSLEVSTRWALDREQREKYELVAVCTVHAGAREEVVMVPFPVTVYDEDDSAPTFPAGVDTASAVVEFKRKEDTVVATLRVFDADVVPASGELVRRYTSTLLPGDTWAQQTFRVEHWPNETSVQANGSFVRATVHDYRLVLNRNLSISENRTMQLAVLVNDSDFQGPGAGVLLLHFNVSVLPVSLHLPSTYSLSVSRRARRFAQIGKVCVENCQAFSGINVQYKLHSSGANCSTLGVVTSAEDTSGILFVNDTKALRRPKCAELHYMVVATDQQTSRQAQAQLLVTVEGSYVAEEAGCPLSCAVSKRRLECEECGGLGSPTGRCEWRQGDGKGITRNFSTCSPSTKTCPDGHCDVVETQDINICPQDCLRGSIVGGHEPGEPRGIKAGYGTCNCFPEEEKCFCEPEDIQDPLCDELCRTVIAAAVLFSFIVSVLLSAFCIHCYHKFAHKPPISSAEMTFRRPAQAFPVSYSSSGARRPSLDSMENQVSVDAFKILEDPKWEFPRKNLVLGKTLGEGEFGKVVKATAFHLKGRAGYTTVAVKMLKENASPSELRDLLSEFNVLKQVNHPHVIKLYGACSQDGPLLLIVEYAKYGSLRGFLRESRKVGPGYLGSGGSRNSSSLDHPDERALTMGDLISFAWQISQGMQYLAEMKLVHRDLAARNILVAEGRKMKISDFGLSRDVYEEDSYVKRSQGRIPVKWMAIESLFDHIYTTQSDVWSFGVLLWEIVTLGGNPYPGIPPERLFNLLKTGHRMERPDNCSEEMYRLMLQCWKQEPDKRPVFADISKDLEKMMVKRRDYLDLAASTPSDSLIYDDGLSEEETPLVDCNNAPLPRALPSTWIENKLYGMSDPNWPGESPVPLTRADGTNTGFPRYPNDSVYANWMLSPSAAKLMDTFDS
Method: as §1, §2

SMILES | inhibition at 1 µM [%]
CN1CCN(c2nc(Nc3cc(-c4ccco4)[nH]n3)nc(Sc3ccc(NC(=O)C4CC4)cc3)n2)CC1 [Example 5] | 50 to 90
CN1CCN(c2nc(Nc3cc(-c4cccs4)[nH]n3)nc(Sc3ccc(NC(=O)C4CC4)cc3)n2)CC1 [Example 6] | > 90
CCc1nc(Nc2cc(-c3ccco3)[nH]n2)nc(Sc2ccc(NC(=O)C3CC3)cc2)n1 [Example 8] | 50 to 90
CN1CCN(c2nc(Nc3cc(-c4ccco4)[nH]n3)nc(Sc3ccccc3)n2)CC1 [Example 9] | > 90
CN1CCN(c2nc(Nc3cc(-c4ccco4)[nH]n3)nc(Sc3ccc(N)cc3)n2)CC1 [Example 10] | > 90
CN1CCN(c2nc(Nc3ncc(-c4ccccc4)s3)nc(Sc3ccccc3)n2)CC1 [Example 14] | < 50
CN1CCN(c2nc(Nc3cc(-c4ccco4)[nH]n3)nc(Sc3ccc(O)cc3)n2)CC1 [Example 15] | > 90
CN1CCN(c2nc(Nc3cc(-c4ccco4)[nH]n3)nc(Sc3ccc(Cl)cc3)n2)CC1 [Example 16] | 50 to 90
CN1CCN(c2nc(Nc3cc(-c4ccco4)[nH]n3)nc(Sc3cccc(Cl)c3)n2)CC1 [Example 17] | 50 to 90
CN1CCN(c2nc(Nc3cc(-c4ccco4)[nH]n3)nc(Sc3ccccc3Cl)n2)CC1 [Example 18] | 50 to 90
CN1CCN(c2nc(Nc3cc(-c4ccco4)[nH]n3)nc(Sc3ccc(C(F)(F)F)cc3)n2)CC1 [Example 19] | 50 to 90

molecular target: T3, c-Src kinase (Homo sapiens, UniProt P12931); experiment: c-Src kinase assay (KinaseProfiler / Kinase Hotspot); type: biochemical; settings: read-out: % Inhibition cSrc
T3 construct: purchased Millipore (KinaseProfiler Service); also Reaction Biology Corp. (Kinase HotSpot)
T3 sequence (P12931 whole entry): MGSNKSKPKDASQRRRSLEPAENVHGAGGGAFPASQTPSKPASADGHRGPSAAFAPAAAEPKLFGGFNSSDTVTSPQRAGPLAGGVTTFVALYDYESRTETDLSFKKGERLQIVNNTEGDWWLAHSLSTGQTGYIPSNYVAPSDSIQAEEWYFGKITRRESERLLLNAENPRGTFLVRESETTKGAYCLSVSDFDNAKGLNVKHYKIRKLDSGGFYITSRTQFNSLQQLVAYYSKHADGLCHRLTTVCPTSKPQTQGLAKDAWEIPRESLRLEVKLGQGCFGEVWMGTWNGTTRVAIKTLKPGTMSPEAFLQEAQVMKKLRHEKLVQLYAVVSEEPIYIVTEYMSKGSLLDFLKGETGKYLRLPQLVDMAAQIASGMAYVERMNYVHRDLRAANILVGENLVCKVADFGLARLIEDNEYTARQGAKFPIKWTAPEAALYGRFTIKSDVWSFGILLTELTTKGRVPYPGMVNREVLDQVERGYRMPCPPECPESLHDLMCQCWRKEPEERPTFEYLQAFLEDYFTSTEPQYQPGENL
Method: as §1, §2

SMILES | inhibition at 1 µM [%]
CN1CCN(c2nc(Nc3cc(-c4ccco4)[nH]n3)nc(Sc3ccc(NC(=O)C4CC4)cc3)n2)CC1 [Example 5] | < 50
CN1CCN(c2nc(Nc3cc(-c4cccs4)[nH]n3)nc(Sc3ccc(NC(=O)C4CC4)cc3)n2)CC1 [Example 6] | < 50
CCc1nc(Nc2cc(-c3ccco3)[nH]n2)nc(Sc2ccc(NC(=O)C3CC3)cc2)n1 [Example 8] | < 50
CN1CCN(c2nc(Nc3cc(-c4ccco4)[nH]n3)nc(Sc3ccccc3)n2)CC1 [Example 9] | < 50
CN1CCN(c2nc(Nc3cc(-c4ccco4)[nH]n3)nc(Sc3ccc(N)cc3)n2)CC1 [Example 10] | < 50
CN1CCN(c2nc(Nc3ncc(-c4ccccc4)s3)nc(Sc3ccccc3)n2)CC1 [Example 14] | < 50
CN1CCN(c2nc(Nc3cc(-c4ccco4)[nH]n3)nc(Sc3ccc(O)cc3)n2)CC1 [Example 15] | 50 to 90
CN1CCN(c2nc(Nc3cc(-c4ccco4)[nH]n3)nc(Sc3ccc(Cl)cc3)n2)CC1 [Example 16] | < 50
CN1CCN(c2nc(Nc3cc(-c4ccco4)[nH]n3)nc(Sc3cccc(Cl)c3)n2)CC1 [Example 17] | < 50
CN1CCN(c2nc(Nc3cc(-c4ccco4)[nH]n3)nc(Sc3ccccc3Cl)n2)CC1 [Example 18] | < 50
CN1CCN(c2nc(Nc3cc(-c4ccco4)[nH]n3)nc(Sc3ccc(C(F)(F)F)cc3)n2)CC1 [Example 19] | < 50

molecular target: T4, TrkA Kinase (Homo sapiens, UniProt P04629); experiment: TrkA kinase assay (KinaseProfiler / Kinase Hotspot); type: biochemical; settings: not given
T4 construct: purchased Millipore (KinaseProfiler Service); also Reaction Biology Corp. (Kinase HotSpot)
T4 sequence (P04629 33-796): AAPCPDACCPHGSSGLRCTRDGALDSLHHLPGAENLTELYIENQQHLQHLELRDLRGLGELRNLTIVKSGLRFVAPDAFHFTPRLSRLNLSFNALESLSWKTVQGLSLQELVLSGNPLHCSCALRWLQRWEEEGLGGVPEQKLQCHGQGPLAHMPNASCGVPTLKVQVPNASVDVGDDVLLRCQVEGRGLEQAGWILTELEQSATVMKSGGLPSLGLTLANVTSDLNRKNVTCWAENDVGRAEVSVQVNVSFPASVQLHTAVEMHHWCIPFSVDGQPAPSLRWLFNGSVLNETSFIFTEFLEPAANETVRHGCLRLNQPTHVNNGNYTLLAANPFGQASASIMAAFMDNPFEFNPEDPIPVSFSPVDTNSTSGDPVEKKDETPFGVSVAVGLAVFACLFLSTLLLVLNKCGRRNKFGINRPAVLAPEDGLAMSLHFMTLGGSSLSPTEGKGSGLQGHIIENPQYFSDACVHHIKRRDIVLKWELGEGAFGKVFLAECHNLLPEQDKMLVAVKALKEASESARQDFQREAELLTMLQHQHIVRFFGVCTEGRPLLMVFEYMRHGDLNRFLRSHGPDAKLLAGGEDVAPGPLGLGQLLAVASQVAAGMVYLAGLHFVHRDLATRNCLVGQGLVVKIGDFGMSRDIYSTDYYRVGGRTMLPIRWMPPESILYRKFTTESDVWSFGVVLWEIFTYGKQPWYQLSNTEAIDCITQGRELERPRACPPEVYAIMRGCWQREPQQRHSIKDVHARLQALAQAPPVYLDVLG
Method: as §1, §2

SMILES | inhibition at 1 µM [%]
CN1CCN(c2nc(Nc3cc(-c4ccco4)[nH]n3)nc(Sc3ccc(NC(=O)C4CC4)cc3)n2)CC1 [Example 5] | > 90
CN1CCN(c2nc(Nc3cc(-c4cccs4)[nH]n3)nc(Sc3ccc(NC(=O)C4CC4)cc3)n2)CC1 [Example 6] | > 90
CCc1nc(Nc2cc(-c3ccco3)[nH]n2)nc(Sc2ccc(NC(=O)C3CC3)cc2)n1 [Example 8] | 50 to 90
CN1CCN(c2nc(Nc3cc(-c4ccco4)[nH]n3)nc(Sc3ccccc3)n2)CC1 [Example 9] | > 90
CN1CCN(c2nc(Nc3cc(-c4ccco4)[nH]n3)nc(Sc3ccc(N)cc3)n2)CC1 [Example 10] | > 90
CN1CCN(c2nc(Nc3ncc(-c4ccccc4)s3)nc(Sc3ccccc3)n2)CC1 [Example 14] | > 90
CN1CCN(c2nc(Nc3cc(-c4ccco4)[nH]n3)nc(Sc3ccc(O)cc3)n2)CC1 [Example 15] | > 90
CN1CCN(c2nc(Nc3cc(-c4ccco4)[nH]n3)nc(Sc3ccc(Cl)cc3)n2)CC1 [Example 16] | > 90
CN1CCN(c2nc(Nc3cc(-c4ccco4)[nH]n3)nc(Sc3cccc(Cl)c3)n2)CC1 [Example 17] | > 90
CN1CCN(c2nc(Nc3cc(-c4ccco4)[nH]n3)nc(Sc3ccccc3Cl)n2)CC1 [Example 18] | > 90
CN1CCN(c2nc(Nc3cc(-c4ccco4)[nH]n3)nc(Sc3ccc(C(F)(F)F)cc3)n2)CC1 [Example 19] | > 90

molecular target: T5, Flt3 kinase (Homo sapiens, UniProt P36888); experiment: Flt3 kinase assay (KinaseProfiler / Kinase Hotspot); type: biochemical; settings: not given
T5 construct: purchased Millipore (KinaseProfiler Service); also Reaction Biology Corp. (Kinase HotSpot)
T5 sequence (P36888 27-993): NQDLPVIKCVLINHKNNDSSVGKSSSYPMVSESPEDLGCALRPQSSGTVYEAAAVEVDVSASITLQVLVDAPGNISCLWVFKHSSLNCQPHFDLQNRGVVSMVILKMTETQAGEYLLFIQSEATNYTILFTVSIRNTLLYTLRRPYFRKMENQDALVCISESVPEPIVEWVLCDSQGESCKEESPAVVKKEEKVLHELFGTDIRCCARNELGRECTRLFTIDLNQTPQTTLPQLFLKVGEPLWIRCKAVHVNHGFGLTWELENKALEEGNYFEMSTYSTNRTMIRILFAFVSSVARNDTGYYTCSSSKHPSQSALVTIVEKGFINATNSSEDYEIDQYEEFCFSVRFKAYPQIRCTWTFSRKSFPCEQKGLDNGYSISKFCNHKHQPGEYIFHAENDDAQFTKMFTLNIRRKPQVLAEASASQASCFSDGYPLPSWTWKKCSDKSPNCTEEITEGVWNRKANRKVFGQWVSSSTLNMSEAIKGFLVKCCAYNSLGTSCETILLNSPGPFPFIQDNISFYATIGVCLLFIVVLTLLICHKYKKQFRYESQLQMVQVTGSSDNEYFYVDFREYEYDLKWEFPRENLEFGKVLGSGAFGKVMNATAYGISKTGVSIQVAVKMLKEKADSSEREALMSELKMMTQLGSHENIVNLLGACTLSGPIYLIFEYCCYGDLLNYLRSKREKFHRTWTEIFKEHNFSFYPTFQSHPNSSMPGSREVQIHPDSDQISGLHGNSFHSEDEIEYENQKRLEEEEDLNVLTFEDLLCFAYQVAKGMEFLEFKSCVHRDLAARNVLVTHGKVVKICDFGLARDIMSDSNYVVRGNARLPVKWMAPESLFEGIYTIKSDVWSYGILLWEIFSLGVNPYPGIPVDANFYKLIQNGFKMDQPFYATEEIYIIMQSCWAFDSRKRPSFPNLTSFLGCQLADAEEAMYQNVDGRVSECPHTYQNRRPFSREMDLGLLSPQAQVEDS
Method: as §1, §2

SMILES | inhibition at 1 µM [%]
CN1CCN(c2nc(Nc3cc(-c4ccco4)[nH]n3)nc(Sc3ccc(NC(=O)C4CC4)cc3)n2)CC1 [Example 5] | > 90
CN1CCN(c2nc(Nc3cc(-c4ccco4)[nH]n3)nc(Sc3ccc(Cl)cc3)n2)CC1 [Example 16] | > 90
